Reference: publication PMC5218480 (PLoS ONE, 2017)

Test system: MV-4-11 cells
Assay: Gene expression microarray analysis (Affymetrix PrimeView) and GSEA
Type: cell-based, human
Parameters: RFU PODN (11730768_x_at) / Fold change /veh PODN (11730768_x_at) / RFU LINC00158 (11744669_a_at) / Fold change /veh LINC00158 (11744669_a_at) / RFU DUSP10 (11751237_a_at) / Fold change /veh DUSP10 (11751237_a_at) / RFU ID3 (11757404_x_at) / Fold change /veh ID3 (11757404_x_at) / RFU PLEKHG5 (11737974_s_at) / Fold change /veh PLEKHG5 (11737974_s_at) / RFU LRRC4B (11730491_at) / Fold change /veh LRRC4B (11730491_at) / RFU GIMAP4 (11747438_a_at) / Fold change /veh GIMAP4 (11747438_a_at) / RFU KRT8 (11758183_x_at) / Fold change /veh KRT8 (11758183_x_at) / RFU CNN1 (11734310_a_at) / Fold change /veh CNN1 (11734310_a_at) / RFU VPS37D (11726825_at) / Fold change /veh VPS37D (11726825_at) / RFU C10orf10 (11716522_x_at) / Fold change /veh C10orf10 (11716522_x_at) / RFU KIR2DL2 /// KIR2DL4 /// KIR2DL5A /// KIR2DL5B /// KIR2DS1 /// KIR2DS2 /// KIR2DS3 /// KIR2DS4 /// KIR3DL3 /// KIR3DL3 /// KIR3DS1 (11738374_at) / Fold change /veh KIR2DL2 /// KIR2DL4 /// KIR2DL5A /// KIR2DL5B /// KIR2DS1 /// KIR2DS2 /// KIR2DS3 /// KIR2DS4 /// KIR3DL3 /// KIR3DL3 /// KIR3DS1 (11738374_at) / RFU C1QL1 (11718748_at) / Fold change /veh C1QL1 (11718748_at) / RFU TMPRSS4 (11747572_a_at) / Fold change /veh TMPRSS4 (11747572_a_at) / RFU HAMP (11756126_x_at) / Fold change /veh HAMP (11756126_x_at) / RFU RNFT2 (11725882_a_at) / Fold change /veh RNFT2 (11725882_a_at) / RFU NR4A2 (11747474_a_at) / Fold change /veh NR4A2 (11747474_a_at) / RFU ABCC12 (11746883_a_at) / Fold change /veh ABCC12 (11746883_a_at) / RFU TMEM136 (11760407_x_at) / Fold change /veh TMEM136 (11760407_x_at) / RFU CLDN22 /// WWC2 (11732394_at) / Fold change /veh CLDN22 /// WWC2 (11732394_at) / RFU HLA-DPB1 (11760878_x_at) / Fold change /veh HLA-DPB1 (11760878_x_at) / RFU SPINT1 (11716480_a_at) / Fold change /veh SPINT1 (11716480_a_at) / RFU GAP43 (11754022_s_at) / Fold change /veh GAP43 (11754022_s_at) / RFU A4GNT (11735810_at) / Fold change /veh A4GNT (11735810_at) / RFU PRB3 (11715151_x_at) / Fold change /veh PRB3 (11715151_x_at) / RFU TUBB4B (11761932_at) / Fold change /veh TUBB4B (11761932_at) / RFU CAPN14 (11732068_a_at) / Fold change /veh CAPN14 (11732068_a_at) / RFU TMCC2 (11721928_a_at) / Fold change /veh TMCC2 (11721928_a_at) / RFU IRGQ (11745062_a_at) / Fold change /veh IRGQ (11745062_a_at) / RFU FAM174B (11720279_a_at) / Fold change /veh FAM174B (11720279_a_at) / RFU TMPRSS4 (11748680_a_at) / Fold change /veh TMPRSS4 (11748680_a_at) / RFU FAM212B (11763350_a_at) / Fold change /veh FAM212B (11763350_a_at) / RFU PLEKHG5 (11743358_a_at) / Fold change /veh PLEKHG5 (11743358_a_at) / RFU ZSCAN30 (11745921_a_at) / Fold change /veh ZSCAN30 (11745921_a_at) / RFU CMKLR1 (11741424_a_at) / Fold change /veh CMKLR1 (11741424_a_at) / RFU LOC101060620 /// MAPK8IP1 (11723275_at) / Fold change /veh LOC101060620 /// MAPK8IP1 (11723275_at) / RFU SPTSSB (11747773_x_at) / Fold change /veh SPTSSB (11747773_x_at) / RFU PRSS12 (11739890_at) / Fold change /veh PRSS12 (11739890_at) / RFU BIN1 (11741810_x_at) / Fold change /veh BIN1 (11741810_x_at) / RFU WNT11 (11732464_a_at) / Fold change /veh WNT11 (11732464_a_at) / RFU C10orf10 (11716521_a_at) / Fold change /veh C10orf10 (11716521_a_at) / RFU C5orf56 (11738089_at) / Fold change /veh C5orf56 (11738089_at) / RFU CYB561 (11721691_x_at) / Fold change /veh CYB561 (11721691_x_at) / RFU ANKRD19P (11752326_a_at) / Fold change /veh ANKRD19P (11752326_a_at) / RFU OR2T12 /// OR2T33 /// OR2T8 (11738714_s_at) / Fold change /veh OR2T12 /// OR2T33 /// OR2T8 (11738714_s_at) / RFU VCAN (11748164_a_at) / Fold change /veh VCAN (11748164_a_at) / RFU JSRP1 (11732532_at) / Fold change /veh JSRP1 (11732532_at) / RFU KRTAP10-11 (11738290_x_at) / Fold change /veh KRTAP10-11 (11738290_x_at) / RFU MYO3A (11730013_a_at) / Fold change /veh MYO3A (11730013_a_at) / RFU EBF3 (11725865_a_at) / Fold change /veh EBF3 (11725865_a_at) / RFU CAMK2N1 (11719241_x_at) / Fold change /veh CAMK2N1 (11719241_x_at) / RFU C5orf56 (11738088_a_at) / Fold change /veh C5orf56 (11738088_a_at) / RFU OLFML3 (11715873_a_at) / Fold change /veh OLFML3 (11715873_a_at) / RFU LOC100653217 /// NTM (11731650_a_at) / Fold change /veh LOC100653217 /// NTM (11731650_a_at) / RFU MAPK11 (11762145_a_at) / Fold change /veh MAPK11 (11762145_a_at) / RFU FIZ1 (11724087_x_at) / Fold change /veh FIZ1 (11724087_x_at) / RFU OASL (11726364_x_at) / Fold change /veh OASL (11726364_x_at) / RFU SOX15 (11748057_x_at) / Fold change /veh SOX15 (11748057_x_at) / RFU CD79A (11719716_a_at) / Fold change /veh CD79A (11719716_a_at) / RFU HIST1H1D (11736915_at) / Fold change /veh HIST1H1D (11736915_at) / RFU CASKIN2 (11723855_a_at) / Fold change /veh CASKIN2 (11723855_a_at) / RFU LOC730098 (11760151_x_at) / Fold change /veh LOC730098 (11760151_x_at) / RFU OR4N2 (11742367_at) / Fold change /veh OR4N2 (11742367_at) / RFU PRRT2 (11749266_a_at) / Fold change /veh PRRT2 (11749266_a_at) / RFU SNX32 (11753110_a_at) / Fold change /veh SNX32 (11753110_a_at) / RFU CDHR5 (11726645_a_at) / Fold change /veh CDHR5 (11726645_a_at) / RFU RCAN1 (11760418_a_at) / Fold change /veh RCAN1 (11760418_a_at) / RFU FAM167A (11723789_a_at) / Fold change /veh FAM167A (11723789_a_at) / RFU FAM26E (11764081_at) / Fold change /veh FAM26E (11764081_at) / RFU ISYNA1 (11749810_s_at) / Fold change /veh ISYNA1 (11749810_s_at) / RFU ACY1 (11761880_at) / Fold change /veh ACY1 (11761880_at) / RFU 11764098_at / Fold change /veh 11764098_at / RFU SAMD14 (11745864_x_at) / Fold change /veh SAMD14 (11745864_x_at) / RFU NPB (11741838_a_at) / Fold change /veh NPB (11741838_a_at) / RFU TMPRSS6 (11731388_a_at) / Fold change /veh TMPRSS6 (11731388_a_at) / RFU KRTAP10-2 (11738614_at) / Fold change /veh KRTAP10-2 (11738614_at) / RFU ARHGAP8 /// PRR5-ARHGAP8 (11727945_x_at) / Fold change /veh ARHGAP8 /// PRR5-ARHGAP8 (11727945_x_at) / RFU KRTAP5-7 /// NADSYN1 (11734609_at) / Fold change /veh KRTAP5-7 /// NADSYN1 (11734609_at) / RFU RASL12 (11751679_a_at) / Fold change /veh RASL12 (11751679_a_at) / RFU CDKN2B (11736163_a_at) / Fold change /veh CDKN2B (11736163_a_at) / RFU PRF1 (11729649_at) / Fold change /veh PRF1 (11729649_at) / RFU, ZNF638 /// ZNF638-IT1 / Fold change vs veh, ZNF638 /// ZNF638-IT1 / RFU, PANK3 / Fold change vs veh, PANK3 / RFU, SH3YL1 / Fold change vs veh, SH3YL1 / RFU, ZEB2 / Fold change vs veh, ZEB2 / RFU, NRIP1 / Fold change vs veh, NRIP1 / RFU, PTTG1IP / Fold change vs veh, PTTG1IP / RFU, CAPN2 / Fold change vs veh, CAPN2 / RFU, MED14 / Fold change vs veh, MED14 / RFU, SNORA58 / Fold change vs veh, SNORA58 / RFU, C1orf63 / Fold change vs veh, C1orf63 / RFU, LRRFIP1 / Fold change vs veh, LRRFIP1 / RFU, NDUFAF7 / Fold change vs veh, NDUFAF7 / RFU, SLC12A2 / Fold change vs veh, SLC12A2 / RFU, IBTK / Fold change vs veh, IBTK / RFU, ESF1 / Fold change vs veh, ESF1 / Fold change vs veh, TMEM50B / RFU, TAOK1 / Fold change vs veh, TAOK1 / RFU, ACBD3 / Fold change vs veh, ACBD3 / RFU, TMA16 / Fold change vs veh, TMA16 / RFU, RWDD3 / Fold change vs veh, RWDD3 / RFU, BCAT1 / Fold change vs veh, BCAT1 / RFU, EDEM3 / Fold change vs veh, EDEM3 / RFU, TMEM33 / Fold change vs veh, TMEM33 / RFU, WDR75 / Fold change vs veh, WDR75 / RFU, AHCTF1 / Fold change vs veh, AHCTF1 / RFU, TFRC / Fold change vs veh, TFRC / RFU, ZDHHC17 / Fold change vs veh, ZDHHC17 / RFU, NOM1 / Fold change vs veh, NOM1 / RFU, ARL8B / Fold change vs veh, ARL8B / RFU, ZBTB11 / Fold change vs veh, ZBTB11 / RFU, TAMM41 / Fold change vs veh, TAMM41 / RFU, KIAA1704 /// LOC100996395 / Fold change vs veh, KIAA1704 /// LOC100996395 / RFU, ING1 / Fold change vs veh, ING1 / RFU, TRMT61B / Fold change vs veh, TRMT61B / RFU, FUBP3 / Fold change vs veh, FUBP3 / RFU, TP53 / Fold change vs veh, TP53 / RFU, TNKS2 / Fold change vs veh, TNKS2 / RFU, ZFP14 / Fold change vs veh, ZFP14 / RFU, ACTR2 / Fold change vs veh, ACTR2 / RFU, PPP3R1 / Fold change vs veh, PPP3R1 / RFU, PIK3R1 / Fold change vs veh, PIK3R1 / RFU, HNRNPA1 / Fold change vs veh, HNRNPA1 / RFU, RNF170 / Fold change vs veh, RNF170 / RFU, ZNF28 / Fold change vs veh, ZNF28 / RFU, RNGTT / Fold change vs veh, RNGTT / RFU, OGT / Fold change vs veh, OGT / RFU, BRD1 / Fold change vs veh, BRD1 / RFU, MARS / Fold change vs veh, MARS / RFU, ZNF655 / Fold change vs veh, ZNF655 / RFU, FAHD1 / Fold change vs veh, FAHD1 / RFU, BDP1 / Fold change vs veh, BDP1 / RFU, LRRCC1 / Fold change vs veh, LRRCC1 / RFU, ARID1A / Fold change vs veh, ARID1A / RFU, ZNF146 / Fold change vs veh, ZNF146 / RFU, ZNF330 / Fold change vs veh, ZNF330 / RFU, GPN3 / Fold change vs veh, GPN3 / RFU, C9orf123 / Fold change vs veh, C9orf123 / RFU, N4BP2L2 / Fold change vs veh, N4BP2L2 / RFU, ARFIP1 / Fold change vs veh, ARFIP1 / RFU, FAM179B / Fold change vs veh, FAM179B / RFU, BCL10 / Fold change vs veh, BCL10 / RFU, UHRF1BP1L / Fold change vs veh, UHRF1BP1L / RFU, BET1 / Fold change vs veh, BET1 / RFU, CNOT2 / Fold change vs veh, CNOT2 / RFU, ZNF268 / Fold change vs veh, ZNF268 / Fold change vs veh, ZNF507 / RFU, DGCR2 / Fold change vs veh, DGCR2 / RFU, WDSUB1 / Fold change vs veh, WDSUB1 / Fold change vs veh, HSP90B1 /// MIR3652 / RFU, ADSS / Fold change vs veh, ADSS / RFU, GK / Fold change vs veh, GK / RFU, ZNF148 / Fold change vs veh, ZNF148 / RFU, TAF9 / Fold change vs veh, TAF9 / RFU, SLC1A5 / Fold change vs veh, SLC1A5 / RFU, SLMO2 / Fold change vs veh, SLMO2 / RFU, ABCC4 / Fold change vs veh, ABCC4 / RFU, LOC101060439 /// RAP1B / Fold change vs veh, LOC101060439 /// RAP1B / RFU, RFX7 / Fold change vs veh, RFX7 / RFU, GTPBP10 / Fold change vs veh, GTPBP10 / RFU, CNEP1R1 / Fold change vs veh, CNEP1R1 / RFU, BIVM-ERCC5 /// ERCC5 / Fold change vs veh, BIVM-ERCC5 /// ERCC5 / RFU, ILF3 / Fold change vs veh, ILF3 / RFU 11762660_at / Fold change /veh 11762660_at / RFU VCAN (11757783_s_at) / Fold change /veh VCAN (11757783_s_at) / RFU DDX43 (11728927_at) / Fold change /veh DDX43 (11728927_at) / RFU KRT8 (11758188_x_at) / Fold change /veh KRT8 (11758188_x_at) / RFU NKD1 (11759106_at) / Fold change /veh NKD1 (11759106_at) / RFU SRD5A1 (11742802_a_at) / Fold change /veh SRD5A1 (11742802_a_at) / RFU TPSAB1 /// TPSB2 (11721975_s_at) / Fold change /veh TPSAB1 /// TPSB2 (11721975_s_at) / RFU GSTM3 (11746129_a_at) / Fold change /veh GSTM3 (11746129_a_at) / RFU IL23R (11737362_x_at) / Fold change /veh IL23R (11737362_x_at) / RFU TMEM51 (11727254_a_at) / Fold change /veh TMEM51 (11727254_a_at) / RFU PIWIL2 (11732686_x_at) / Fold change /veh PIWIL2 (11732686_x_at) / RFU ORM1 (11744905_x_at) / Fold change /veh ORM1 (11744905_x_at) / RFU CCDC152 (11743942_at) / Fold change /veh CCDC152 (11743942_at) / RFU ECM1 (11717891_a_at) / Fold change /veh ECM1 (11717891_a_at) / RFU IL23R (11748794_a_at) / Fold change /veh IL23R (11748794_a_at) / RFU TNFAIP8L3 (11732012_x_at) / Fold change /veh TNFAIP8L3 (11732012_x_at) / RFU MBOAT4 (11741988_at) / Fold change /veh MBOAT4 (11741988_at) / RFU 11764193_at / Fold change /veh 11764193_at / RFU TMEM53 (11763286_at) / Fold change /veh TMEM53 (11763286_at) / RFU MAGEB2 (11727129_at) / Fold change /veh MAGEB2 (11727129_at) / RFU TMEM200A (11744735_a_at) / Fold change /veh TMEM200A (11744735_a_at) / RFU CCDC152 (11751479_a_at) / Fold change /veh CCDC152 (11751479_a_at) / RFU FAM211A (11726209_a_at) / Fold change /veh FAM211A (11726209_a_at) / RFU RGS16 (11746705_a_at) / Fold change /veh RGS16 (11746705_a_at) / RFU VCAN (11755009_s_at) / Fold change /veh VCAN (11755009_s_at) / RFU RHOB (11743442_s_at) / Fold change /veh RHOB (11743442_s_at) / RFU RGS16 (11720943_a_at) / Fold change /veh RGS16 (11720943_a_at) / RFU RGS16 (11720944_at) / Fold change /veh RGS16 (11720944_at) / RFU, VPS4B / Fold change vs veh, VPS4B / RFU, CREB1 / Fold change vs veh, CREB1 / RFU, DNAJC13 / Fold change vs veh, DNAJC13 / RFU, GNAQ / Fold change vs veh, GNAQ / RFU, CDK5R1 / Fold change vs veh, CDK5R1 / RFU, ZRANB3 / Fold change vs veh, ZRANB3 / RFU, CUL4A / Fold change vs veh, CUL4A / RFU, CCNY / Fold change vs veh, CCNY / RFU, UFL1 / Fold change vs veh, UFL1 / RFU, COG3 / Fold change vs veh, COG3 / RFU, DIAPH2 / Fold change vs veh, DIAPH2 / RFU, SKA2 / Fold change vs veh, SKA2 / RFU, AFF3 / Fold change vs veh, AFF3 / RFU, LMF1 / Fold change vs veh, LMF1 / RFU, IPO11 / Fold change vs veh, IPO11 / RFU, DFFB / Fold change vs veh, DFFB / RFU, FOXP1 / Fold change vs veh, FOXP1 / RFU, CARD8 / Fold change vs veh, CARD8 / RFU, STRN3 / Fold change vs veh, STRN3 / RFU, ADK / Fold change vs veh, ADK / RFU, RASSF2 / Fold change vs veh, RASSF2 / RFU, WIPF1 / Fold change vs veh, WIPF1 / RFU, LARP1B / Fold change vs veh, LARP1B / RFU, RASA1 / Fold change vs veh, RASA1 / RFU, RB1 / Fold change vs veh, RB1 / RFU, PPFIA1 / Fold change vs veh, PPFIA1 / RFU, MAT2A / Fold change vs veh, MAT2A / RFU, CCT5 / Fold change vs veh, CCT5 / RFU, WDR92 / Fold change vs veh, WDR92 / RFU, CUX1 / Fold change vs veh, CUX1 / RFU, TTC7A / Fold change vs veh, TTC7A / RFU, TMEM135 / Fold change vs veh, TMEM135 / RFU, DEPTOR / Fold change vs veh, DEPTOR / RFU, CPM / Fold change vs veh, CPM / RFU, DNAJB6 / Fold change vs veh, DNAJB6 / RFU, CACNA2D3 / Fold change vs veh, CACNA2D3 / RFU, DTX4 / Fold change vs veh, DTX4 / RFU, TFCP2 / Fold change vs veh, TFCP2 / RFU, GMCL1 /// GMCL1P1 / Fold change vs veh, GMCL1 /// GMCL1P1 / RFU, AEBP2 / Fold change vs veh, AEBP2 / RFU, SNHG1 /// SNORD22 /// SNORD25 /// SNORD26 /// SNORD27 /// SNORD28 /// SNORD29 /// SNORD31 / Fold change vs veh, SNHG1 /// SNORD22 /// SNORD25 /// SNORD26 /// SNORD27 /// SNORD28 /// SNORD29 /// SNORD31 / Fold change (Aza/veh), C12orf56 (ProbeSet 11735607_a_at) / Fold change (ACY-1035/veh), C12orf56 (ProbeSet 11735607_a_at) / Fold change (Aza/veh), FGFR1OP (ProbeSet 11751329_s_at) / Fold change (ACY-1035/veh), FGFR1OP (ProbeSet 11751329_s_at) / Fold change (Aza/veh), VPS36 (ProbeSet 11739960_a_at) / Fold change (ACY-1035/veh), VPS36 (ProbeSet 11739960_a_at) / RFU SYPL1 (11715823_x_at) / Fold change /veh SYPL1 (11715823_x_at) / RFU IGFBP7 (11715501_s_at) / Fold change /veh IGFBP7 (11715501_s_at) / RFU REEP3 (11722064_at) / Fold change /veh REEP3 (11722064_at) / RFU IGLL1 (11728026_x_at) / Fold change /veh IGLL1 (11728026_x_at): dose or concentration left out as unconfirmed
Conditions: ProbeSet 11719185_x_at; LIST B

Nc1ccc(-c2cccs2)cc1NC(=O)c1ccc2c(c1)cc(C1CC1)n2CCN1CCOCC1 [ACY-1035]
Fold change vs veh, N4BP2L2: 1.03
